Laboratory results as given in patent publication US6184217A (Cephalon, Inc., priority 1997, dated 2001).

How the values were obtained:
[1] = test system: GABA-ergic neurons in the nucleus basalis magnocellularis; test: Ibotenic acid lesion: glutamic acid decarboxylase-expressing (GABA-ergic) neurons in nbm; type: in vivo, Sprague-Dawley rats
Method: Compound A was tested for its ability to prevent depletion (e.g., enhance the survival) of GABA-ergic neurons in the nucleus basalis magnocellularis, using the well-established ibotenic acid lesion mode. Ibotenic acid, an excitotoxin, is known to reduce numbers of GABA-expressing neurons in the nbm region (Lindefors et al., Neurosci. Lett., 135:262-264, 1992; Shaugnessy et al., Brain Res., 637:15-26, 1994). […] The rats were then dosed with Compound A (0.03 mg/kg) via subcutaneous injection beginning 18 hours after the lesion, and continuing q.o.d. until 18 days post-lesion. […] The numbers of neurons expressing glutamic acid decarboxylase were then counted throughout the rostral-caudal extent of the nucleus basalis magnocellularis, in a region where glutamic acid decarboxylase-expressing neurons of the nbm are easily distinguished from glutamic acid decarboxylase-expressing neurons in adjacent structures (white matter medial and ventral to the globus pallidus). The results were expressed as percent glutamic acid decarboxylase-expressing neurons on the lesioned side relative to the number on the opposite, unlesioned side. The results were also calculated separately for the rostral nbm, mid-nmb, and caudal nbm.

[2] = test system: nbm neurons; test: Ibotenic acid lesion: Fluoro-Gold-labeled nbm neurons; type: in vivo, Sprague-Dawley rats; conditions: 0.03 mg/kg s.c. every other day until 18 days post-lesion
Source text: To test directly the ability of Compound A to prevent excitotoxic neuron death, nbm neurons in adult male Sprague-Dawley rats were first labeled with a long-lasting marker. This was done by injecting Fluoro-Gold (FG), a neuronal tracer that is taken up by nerve terminals and transported back to the cell body (Book et al., J. Neuropath. Exp. Neurology, 53:95-102, 1994), into target regions of nbm neurons in the frontal and parietal cortex. 7-10 days later the animals received lesion of the nbm unilaterally, using 5 μg of ibotenic acid. Beginning 18 hours after this lesion, the animals received Compound A (0.03 mg/kg) via subcutaneous injection, every other day until 18 days post-lesion. Tissue sections were collected throughout the entire rostral-caudal extent of the nbm on both sides of the brain, and numbers of nbm neurons with the FG label were counted. The counts were corrected for size differences using standard procedures, and the results expressed as the percent of labeled neurons in the nbm on the lesioned side of each animal relative to the number of labeled neurons in the nbm on the opposite unlesioned side of the brain.

[3] = test system: protein kinase C; test: Protein kinase C inhibition in vitro; type: biochemical
[4] = test system: IL-1β production (THP-1 cells); test: Inhibition of LPS-induced IL-1β production in THP-1 cells; type: cell-based; conditions: Homo sapiens, LPS 2 ug/ml
Method: Stock solutions consisting of 4 mM Compound A, in 100% DMSO, were stored at 4° C. Cell culture medium RPMI 1640 (Media Tech, Herndon, Va.) and fetal bovine serum (Hyclone, Logan, Utah) comprised the test medium. Lipopolysaccharide (LPS) (Sigma, St. Louis, Mo.) from E. coli serotype 0.111:B4, extracted with trichloroacetic acid, was used. Stock solutions of LPS were prepared and stored at 4° C. in phosphate-buffered saline (PBS). ELISA kits for assaying tumor necrosis factor alpha (TNF-α) and IL-1β were purchased from Boehringer-Mannheim, (Indianapolis, Ind.) and were used according to the manufacturer's instructions. THP-1 cells, a human monocyte-derived cell line, was obtained from the American Type Culture Collection (ATCC TIB 202). Cells were grown in RPMI 1640 containing 10% fetal bovine serum (medium) in a humidified atmosphere of 5% CO2 :95% air at 37° C. Experiments were performed in 24 well culture plates (Nunc) with 5×10^5 THP-1 cells in 1 ml of medium. Cells were incubated with LPS at 2 ug/ml to induce TNF-α. After a 3-hr incubation period, the cells and medium were centrifuged at 1,000×g for 5 min, and the resulting supernatant fluid was either assayed immediately for TNF-α or stored at -70° C. and assayed later. Media samples were measured for content of TNF-α and IL-1β by Elisa assays. […]

[5] = test system: TNF-α; test: LPS-induced TNF-α in the serum of mice; type: in vivo, C57BL mice; conditions: 30 mg/kg ip 2 h before LPS
Method: Sixty female C57BL mice (4-6 weeks old) were divided into six groups, each with 10 animals. Three groups (1,3,5) received vehicle only (PBS containing 0.1% TEA (tetraethyl ammonium hydrochloride)), 200 μl/mouse via intraperitoneal (ip) administration. The other three groups (2,4,6) received Compound A (30 mg/kg in 200 μl, ip) of vehicle (PBS containing 10% of the ethyl ester of 12-hydroxystearic acid; solutol). Two hours later, the animals received by ip administration, 0.1 mg/kg of LPS (groups 1 & 2), 0.5 mg/kg of LPS (groups 3 & 4), and 1.0 mg/kg of LPS (groups 5 % 6). Two hours after LPS administration, all of the animals were sacrificed, and plasma samples were obtained and assayed for their […] and IL-1β content. Assays were carried out as described in Example 8.
The numbers in are the group numbers as described above. N indicates the number of animals from which plasma measurements where made. ND=not done.

[6] = test system: cholinergic neurons, striatal neurons, and sensory neurons; conditions: cited from earlier work

Compound: CCSCc1ccc2c(c1)c1c3c(c4c5cc(CSCC)ccc5n5c4c1n2C1CC(O)(C(=O)OC)C5(C)O1)CNC3=O (stereo not shown) [Compound A]
- glutamic acid decarboxylase-expressing neurons vs vehicle-only animals ([1]; mid-nbm or caudal nbm, 0.03 mg/kg s.c. q.o.d.): No statistically significant differences
- glutamic acid decarboxylase-expressing neurons on lesioned side relative to unlesioned side ([1]; rostral nbm, 0.03 mg/kg s.c. q.o.d. until 18 days post-lesion, mean, s.e.m., p<0.05 vs vehicle (34 ± 19)): 78 (±16 s.c.m.) percent
- effect on FG-labeled neurons at mid-lesion and caudal to the lesion [2]: declining effect
- Fluoro-Gold-labeled neurons in rostral portion of lesioned nbm vs vehicle only ([2]; over 400 μm from midpoint of lesion, P<0.05 (FIG. 3)): significantly more FG-labeled neurons
- protein kinase C inhibition at concentrations inhibiting TNF-α and IL-1β production ([3]; at 139 nM and 261 nM): inactive
- fold less active than K-252a against protein kinase C ([3]; compared with K-252a): 570 fold
- IC50 ([3]; in vitro): 16 µM
- inhibitory activity against PKC ([3]; summary statement): little or no inhibitory activity against PKC
- IC50 [4]: 0.261 µM
- TNF-α ([5]; LPS dose 0.1 ip, vehicle 6129 ± 676, N = 10): 2714 ± 449 pg/mL
- TNF-α ([5]; LPS dose 0.5 ip, vehicle 7141 ± 1113, N = 7): 3766 ± 375 pg/mL
- TNF-α ([5]; LPS dose 1.0 ip, vehicle 3745 ± 610, N = 9): 2399 ± 1399 pg/mL
- function of cholinergic neurons, striatal neurons, and sensory neurons [6]: enhance the function of cholinergic neurons, striatal neurons, and sensory neurons
